Entries after “also recorded” stand apart in the source; their conditions may differ.
Assays:
[1] = MTT cell viability assay (cytotoxicity); type: cell-based, human; conditions: human, SH-SY5Y neuroblastoma cells, 1–500 μM, 24 h, MTT
Protocol: (§1) The effects of the newly synthesized N-pyrrolyl-hydrazone derivatives on the cellular viability of neuronal SH-SY5Y cells were evaluated, and the corresponding IC50 values were calculated. In the current study, the cells were seeded at density 2 × 10^4 and were treated with the test compounds at concentrations 1–500 μM for 24 h.
(§2) Human neuroblastoma cell line SH-SY5Y was purchased from European Collection of Cell Cultures (ECACC, Salisbury, UK). SH-SY5Y cells were cultivated in an RPMI 1640 medium supplemented with 10% heat-inactivated FBS, 2 mM L-glutamine, and 1% antibiotics (penicillin/streptomycin). The cell line was incubated at 37 °C with 5% of CO2, and the culture’s medium was replaced with a time interval of 2–3 days.
(§3) The SH-SY5Y cells were plated for 24 h at 37 °C on 96-well plates at a density of 2 × 10^4 cells per well to confluence. After 24 h, the cells were treated with the compounds (1–500 μM). MTT assay was performed to measure the metabolic activity in living cells. The mitochondria succinate dehydrogenase system of living cells metabolized yellow-colored, water-soluble, tetrazolium salt MTT (3-(4,5-dimethylthiazol2-yl)-2,5-diphenyltetrazolium bromide to a purple insoluble formazan crystal. The cells were incubated with the test solutions for 24 h, the MTT solution (10 mg/mL in PBS) was then added to each well, and the mixture was incubated at 37 °C for 3 h. Thereafter, the MTT solution was carefully aspirated, and the obtained formazan crystals were dissolved by the addition of […] DMSO. The cell viability was determined by measuring the optical density −570–690 nm in a multiplate reader Synergy 2 (BioTek Instruments, Inc., Highland Park, Winooski, VT, USA).

[2] = ABTS radical scavenging assay; type: biochemical; conditions: for ABTS scavenging activity: 1 mg/mL in methanol, 10 min, 734 nm; for radical scavenging effect (in words): 1 mg/mL, structure-activity discussion of the ABTS/DPPH results
Protocol: During the 2,2′-azino-bis(3-ethylbenzothiazoline-6-sulphonic acid) (ABTS) assay, the discoloration of the initial color could be detected at 734 nm.
The ABTS radical tests were measured according to a modified method of Arnao et al.. The test solutions were dissolved in methanol (1 mg/mL) at ambient temperature. The radical cation of ABTS (ABTS^+•) was created by mixing 7 mmol/L solution of ABTS and 2.4 mmol/L solution of potassium persulphate, which were set to react for 14 h in the dark at room temperature. The working solutions consisted of 2 mL of the stock solution diluted in 50 mL of methanol with an absorbance of […] units at 734 nm. Then, 1 mL of the ABTS working solution was allowed to react with the title compounds for 10 min, with a subsequent absorbance determination. The inhibition percentages were evaluated by applying the same formula as the DPPH assay (4). ABTSscavenging activity = Abscontrol − Abssample/Abscontrol × 100%(4) where Abscontrol is the absorbance of the ABTS radical in methanol, and Abssample is the absorbance of the ABTS radical solution mixed with the sample.

SH-SY5Y cells [3] = assay: MTT cell viability assay (cytotoxicity); type: cell-based, human
Protocol: as §1, §2, §3

SH-SY5Y cells [4] = assay: H2O2-induced oxidative stress model, protection by MTT; type: cell-based, human; conditions: H2O2 1 mM, 15 min; for protective effect against H2O2-induced oxidative stress (in words): 1, 10, 20 µM pre-incubation 90 min; for protection at the lowest tested concentration (in words): 1 µM pre-incubation 90 min
Protocol: The cells were pre-incubated with the tested compounds at concentrations 1, 10, and 20 µM for 90 min. Melatonin was used as a reference compound because of its well-established neuroprotective effects in various in vitro and in vivo models. After 90 min pre-incubation with the test substances, SH-SY5Y cells were exposed to H2O2 (1 mM, 15 min), as described in the Materials and Methods section.
as §2
For the H2O2-induced oxidative stress model, SH-SY5Y cells were seeded in 96-well plates at a density of 3.5 × 10^4/well in 100 μL for 24 h. Afterwards, the cell medium was aspirated, and the cells were treated with different concentrations of tested compounds (1, 10, 20 µM) for 90 min; then, the SH-SY5Y cells were washed with phosphate-buffered saline (PBS) and were exposed to the oxidative stress (H2O2 1 mM in PBS, 15 min). The contents of all wells were changed with culture medium. After 24 h, the amount of attached viable cells was evaluated by MTT assay. Negative controls (cells without hydrogen peroxide treatment) were considered as 100% protection, and hydrogen-peroxide-treated cells as 0% protection.

[5] = DPPH radical scavenging assay; type: biochemical; conditions: 1 mg/mL in methanol, 30 min, 517 nm
Protocol: The 1,1-diphenyl-2-picrylhydrazyl (DPPH) radical scavenging activity of the newly synthesized derivatives was determined at one concentration—1 mg/mL. Trolox was used as a standard.
The scavenging assay of the title compounds against DPPH radical was carried out by the widely employed protocol of Brand-Williams et al.. Briefly, a single concentration of 1 mg/mL for each synthesized compound in methanol was obtained. Subsequent addition of 1 mL of the methanol solution of DPPH (1 mmol/L) was performed. The reaction mixtures were incubated in the dark for 30 min. The absorbance was measured at 517 nm. Three measurements were carried out for each sample; 6-Hydroxy-2,5,7,8- tetramethylchroman-2-carboxylic acid (Trolox) was applied as a standard. The percentage inhibition of the tested samples was calculated by the following Formula (3):DPPHscavenging activity = Abscontrol − Abssample/Abscontrol × 100%(3) where Abscontrol is the absorbance of the DPPH radical in methanol, and Abssample is the absorbance of the DPPH radical solution mixed with the sample.

| SMILES | melting point | IC50 at 24 h [1] | ABTS scavenging activity [2] | radical scavenging effect (in words) [2] | cytotoxicity (in words) (SH-SY5Y cells [3]; 24 h) | protective effect against H2O2-induced oxidative stress (in words) (SH-SY5Y cells [4]) | DPPH scavenging activity [5] | protection at the lowest tested concentration (in words) (SH-SY5Y cells [4]) | toxicity relative to 7d (times higher) (SH-SY5Y cells [3]; from IC50 values) |
| --- | --- | --- | --- | --- | --- | --- | --- | --- | --- |
| CCOC(=O)c1cc(-c2ccc(Br)cc2)n(CC(=O)N/N=C/c2ccc(N(C)C)cc2)c1C [7a, (E)-ethyl 5-(4-bromophenyl)-1-(2-(2-(4-(dimethylamino)benzylidene)hydrazinyl)-2-oxoethyl)-2-methyl-1H-pyrrole-3-carboxylate] | 211.4 to 213.6 °C | 55.8 µM | 22% |  |  |  |  |  |  |
| CCOC(=O)c1cc(-c2ccc(Br)cc2)n(CC(=O)N/N=C/c2ccc(Cl)cc2)c1C [7b, (E)-ethyl 5-(4-bromophenyl)-1-(2-(2-(4-chlorobenzylidene)hydrazinyl)-2-oxoethyl)-2-methyl-1h-pyrrole-3-carboxylate] | 229.4 to 231.2 °C | 67.6 µM |  | negligible effect |  |  |  |  |  |
| CCOC(=O)c1cc(-c2ccc(Br)cc2)n(CC(=O)N/N=C/c2ccc([N+](=O)[O-])cc2)c1C [7c, (E)-ethyl 5-(4-bromophenyl)-2-methyl-1-(2-(2-(4-nitrobenzylidene)hydrazinyl)-2-oxo-ethyl)-1H-pyrrole-3-carboxylate] | 245.9 to 247.2 °C | > 500 µM |  |  | non-toxic | most potent protection; also recorded: stronger protective effects |  |  |  |
| CCOC(=O)c1cc(-c2ccc(Br)cc2)n(CC(=O)N/N=C/c2cc(OC)c(O)c(OC)c2)c1C [7d, (E)-ethyl 5-(4-bromophenyl)-1-(2-(2-(4-hydroxy-3,5-dimethoxybenzylidene)hydrazine-yl)-2-oxoethyl)-2-methyl-1H-pyrrole-3-carboxylate] | 191.9 to 194.4 °C | 99.6 µM | 83% |  |  | better protection in all tested concentrations than the reference compound melatonin; also recorded: stronger protective effects | 24% | statistically significant protection |  |
| CCOC(=O)c1cc(-c2ccc(Br)cc2)n(CC(=O)N/N=C/c2ccc(OC)cc2OC)c1C [7e, (E)-ethyl 5-(4-bromophenyl)-1-(2-(2-(2,4-dimethoxybenzylidene)hydrazinyl)-2-oxo-ethyl)-2-methyl-1H-pyrrole-3-carboxylate] | 206 to 207.6 °C | 63.1 µM |  | lack of radical scavenging effects |  |  |  | statistically significant protection |  |
| COc1ccc2[nH]cc(CCNC(C)=O)c2c1 [Melatonin, reference compound] |  | > 500 µM |  |  |  | dose-dependent protective effects |  |  |  |
| Cc1c(C)c2c(c(C)c1O)CCC(C)(C(=O)O)O2 (stereo not drawn) [Trolox, 6-Hydroxy-2,5,7,8-tetramethylchroman-2-carboxylic acid, reference compound] |  |  |  |  |  |  | 94% |  |  |

The next lines start with results.

| melting point | SMILES | IC50 at 24 h [1] | ABTS scavenging activity [2] | radical scavenging effect (in words) [2] | cytotoxicity (in words) (SH-SY5Y cells [3]; 24 h) | protective effect against H2O2-induced oxidative stress (in words) (SH-SY5Y cells [4]) | DPPH scavenging activity [5] | protection at the lowest tested concentration (in words) (SH-SY5Y cells [4]) | toxicity relative to 7d (times higher) (SH-SY5Y cells [3]; from IC50 values) |
| --- | --- | --- | --- | --- | --- | --- | --- | --- | --- |
| 212 to 213.3 °C | CCOC(=O)c1cc(-c2ccc(Br)cc2)n(CCC(=O)N/N=C/c2ccc(N(C)C)cc2)c1C [8a, (E)-ethyl 5-(4-bromophenyl)-1-(3-(2-(4-(dimethylamino)benzylidene)hydrazinyl)-3-oxopropyl)-2-methyl-1H-pyrrole-3-carboxylate] | 56.3 µM | 48% |  |  |  |  |  |  |
| 181.4 to 184.6 °C | CCOC(=O)c1cc(-c2ccc(Br)cc2)n(CCC(=O)N/N=C/c2ccc(Cl)cc2)c1C [8b, (E)-ethyl 5-(4-bromophenyl)-1-(3-(2-(4-chlorobenzylidene)hydrazinyl)-3-oxopropyl)-2-methyl-1H-pyrrole-3-carboxylate] | 57.4 µM |  |  |  |  |  |  |  |
| 214.4 to 217.1 °C | CCOC(=O)c1cc(-c2ccc(Br)cc2)n(CCC(=O)N/N=C/c2ccc([N+](=O)[O-])cc2)c1C [8c, (E)-ethyl 5-(4-bromophenyl)-2-methyl-1-(3-(2-(4-nitrobenzylidene)hydrazinyl)-3-oxopropyl)-1H-pyrrole-3-carboxylate] | 58.2 µM |  |  |  |  |  |  |  |
| 196.6 to 197.6 °C | CCOC(=O)c1cc(-c2ccc(Br)cc2)n(CCC(=O)N/N=C/c2cc(OC)c(O)c(OC)c2)c1C [8d, (E)-ethyl 5-(4-bromophenyl)-1-(3-(2-(4-hydroxy-3,5-dimethoxybenzylidene) hydrazine-yl)-3-oxopropyl)-2-methyl-1H-pyrrole-3-carboxylate] | 57.3 µM | 89% |  |  |  | 19% |  | 1.7 times |
| 170 to 171.9 °C | CCOC(=O)c1cc(-c2ccc(Br)cc2)n(CCC(=O)N/N=C/c2ccc(OC)cc2OC)c1C [8e, (E)-ethyl 5-(4-bromophenyl)-1-(3-(2-(2,4-dimethoxybenzylidene)hydrazinyl)-3-oxopropyl)-2-methyl-1H-pyrrole-3-carboxylate] | 91.1 µM |  | lack of radical scavenging effects |  | lower antioxidant protection; also recorded: lower than melatonin |  |  |  |
